Laboratory results from ChEMBL document CHEMBL1128824 (Bioorg Med Chem Lett, 1995).

Tests used:
[1] = biological target: T1, Protein kinase C beta type (Homo sapiens, UniProt P05771); assay: Inhibition of Protein kinase C beta 2 expressed in Sf-9 cells
[2] = biological target: T2, Protein kinase C epsilon type (Homo sapiens, UniProt Q02156); assay: Inhibition of protein kinase C epsilon expressed in Sf-9 cells
T2 sequence (Q02156 whole entry): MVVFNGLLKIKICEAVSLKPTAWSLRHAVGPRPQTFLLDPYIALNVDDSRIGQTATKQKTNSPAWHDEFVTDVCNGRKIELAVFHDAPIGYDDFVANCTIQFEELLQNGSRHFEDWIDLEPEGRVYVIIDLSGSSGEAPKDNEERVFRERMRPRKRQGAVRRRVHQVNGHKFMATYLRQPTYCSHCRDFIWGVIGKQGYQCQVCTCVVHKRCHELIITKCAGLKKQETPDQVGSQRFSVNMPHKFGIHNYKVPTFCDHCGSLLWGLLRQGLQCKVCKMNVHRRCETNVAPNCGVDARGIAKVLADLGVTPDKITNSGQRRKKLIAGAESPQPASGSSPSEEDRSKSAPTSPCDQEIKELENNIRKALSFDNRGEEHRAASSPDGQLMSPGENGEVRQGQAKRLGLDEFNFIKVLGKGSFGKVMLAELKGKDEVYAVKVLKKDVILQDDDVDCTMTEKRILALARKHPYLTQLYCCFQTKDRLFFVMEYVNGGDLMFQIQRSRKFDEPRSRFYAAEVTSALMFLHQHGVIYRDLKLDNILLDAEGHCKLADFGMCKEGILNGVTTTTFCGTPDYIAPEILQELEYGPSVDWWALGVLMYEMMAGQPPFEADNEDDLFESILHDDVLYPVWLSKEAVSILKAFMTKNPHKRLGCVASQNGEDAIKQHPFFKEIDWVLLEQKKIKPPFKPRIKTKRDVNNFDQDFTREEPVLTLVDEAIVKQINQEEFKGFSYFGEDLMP

[3] = biological target: T3, Protein kinase C alpha type (Homo sapiens, UniProt P17252); assay: Inhibition of Protein kinase C alpha expressed in Sf-9 cells
Homo sapiens [4] = organism: Homo sapiens; assay: Compound was tested for inhibition of phorbol-induced superoxide generation in human neutrophils using neutrophil assay; type: functional
[5] = biological target: T4, Protein kinase C eta type (Homo sapiens, UniProt P24723); assay: Inhibition of Protein kinase C eta expressed in Sf-9 cells
T4 sequence (P24723 whole entry): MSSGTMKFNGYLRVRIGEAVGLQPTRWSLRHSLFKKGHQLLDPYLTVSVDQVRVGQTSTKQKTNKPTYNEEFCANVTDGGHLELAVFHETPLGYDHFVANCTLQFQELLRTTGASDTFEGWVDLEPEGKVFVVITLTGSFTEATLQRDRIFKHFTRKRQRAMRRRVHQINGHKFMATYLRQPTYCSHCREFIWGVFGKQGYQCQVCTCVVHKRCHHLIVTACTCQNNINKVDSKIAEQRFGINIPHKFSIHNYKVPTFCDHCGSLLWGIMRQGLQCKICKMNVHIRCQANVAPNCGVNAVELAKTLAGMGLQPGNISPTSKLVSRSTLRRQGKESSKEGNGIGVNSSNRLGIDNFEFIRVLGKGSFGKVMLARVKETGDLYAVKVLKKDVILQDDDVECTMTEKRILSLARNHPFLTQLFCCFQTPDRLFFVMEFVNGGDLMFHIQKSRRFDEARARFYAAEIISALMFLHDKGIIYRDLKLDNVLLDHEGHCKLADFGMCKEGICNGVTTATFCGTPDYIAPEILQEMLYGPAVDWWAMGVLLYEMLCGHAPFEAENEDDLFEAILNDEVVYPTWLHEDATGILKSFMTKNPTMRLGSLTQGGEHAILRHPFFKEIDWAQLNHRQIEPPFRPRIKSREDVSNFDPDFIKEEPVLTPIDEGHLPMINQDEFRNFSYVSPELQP

[6] = biological target: T5, Protein kinase C delta type (Homo sapiens, UniProt Q05655); assay: Inhibition of Protein kinase C delta expressed in Sf-9 cells
T5 sequence (Q05655 whole entry): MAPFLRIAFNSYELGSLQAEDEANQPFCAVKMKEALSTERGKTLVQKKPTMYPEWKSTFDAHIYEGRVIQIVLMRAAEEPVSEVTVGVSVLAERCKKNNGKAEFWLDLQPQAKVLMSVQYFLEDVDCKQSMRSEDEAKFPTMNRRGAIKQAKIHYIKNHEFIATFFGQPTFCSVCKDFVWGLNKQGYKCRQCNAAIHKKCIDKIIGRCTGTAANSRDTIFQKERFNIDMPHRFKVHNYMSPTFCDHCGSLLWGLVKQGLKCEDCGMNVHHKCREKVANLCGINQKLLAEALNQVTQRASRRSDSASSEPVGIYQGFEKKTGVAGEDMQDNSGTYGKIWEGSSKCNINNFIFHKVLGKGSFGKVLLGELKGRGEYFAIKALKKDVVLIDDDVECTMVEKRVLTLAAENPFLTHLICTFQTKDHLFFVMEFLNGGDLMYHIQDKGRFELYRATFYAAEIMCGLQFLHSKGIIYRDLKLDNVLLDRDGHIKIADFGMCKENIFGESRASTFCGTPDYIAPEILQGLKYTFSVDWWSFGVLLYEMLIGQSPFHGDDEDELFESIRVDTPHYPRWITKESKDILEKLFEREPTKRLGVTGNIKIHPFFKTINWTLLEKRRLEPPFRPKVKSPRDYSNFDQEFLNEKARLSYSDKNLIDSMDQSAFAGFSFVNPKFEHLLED

Homo sapiens [7] = organism: Homo sapiens; assay: Compound was tested for inhibition of phorbol-induced superoxide generation in human neutrophils after 1 hr pre-incubation at 4 degree C using neutrophil assay; value ranges from 2.8-10; type: functional
Homo sapiens [8] = organism: Homo sapiens; assay: Compound was tested for inhibition of phorbol-induced superoxide generation in human neutrophils after 1 hr pre-incubation at 4 degree C using neutrophil assay; type: functional
Homo sapiens [9] = organism: Homo sapiens; assay: Compound was tested for inhibition of phorbol-induced superoxide generation in human neutrophils after 1 hr pre-incubation at 4 degree C using neutrophil assay; value ranges from 0.33-0.85; type: functional
[10] = biological target: T1, Protein kinase C beta type; assay: Inhibition of Protein kinase C beta 2 expressed in Sf-9 cells (inactive)
[11] = biological target: T2, Protein kinase C epsilon type; assay: Inhibition of protein kinase C epsilon expressed in Sf-9 cells (inactive)
[12] = biological target: T4, Protein kinase C eta type; assay: Inhibition of Protein kinase C eta expressed in Sf-9 cells (inactive)
Homo sapiens [13] = organism: Homo sapiens; assay: Compound was tested for inhibition of phorbol-induced superoxide generation in human neutrophils using neutrophil assay; value ranges from […]-[…]; type: functional
[14] = biological target: T3, Protein kinase C alpha type; assay: Inhibition of Protein kinase C alpha expressed in Sf-9 cells (inactive)
[15] = biological target: T5, Protein kinase C delta type; assay: Inhibition of Protein kinase C delta expressed in Sf-9 cells (inactive)
Homo sapiens [16] = organism: Homo sapiens; assay: cells; type: functional, organism-based
Homo sapiens [17] = organism: Homo sapiens; assay: Compound was tested for inhibition of phorbol-induced superoxide generation in human neutrophils using neutrophil assay; value ranges from 0.8-2.1; type: functional

T1 sequence (P05771 whole entry): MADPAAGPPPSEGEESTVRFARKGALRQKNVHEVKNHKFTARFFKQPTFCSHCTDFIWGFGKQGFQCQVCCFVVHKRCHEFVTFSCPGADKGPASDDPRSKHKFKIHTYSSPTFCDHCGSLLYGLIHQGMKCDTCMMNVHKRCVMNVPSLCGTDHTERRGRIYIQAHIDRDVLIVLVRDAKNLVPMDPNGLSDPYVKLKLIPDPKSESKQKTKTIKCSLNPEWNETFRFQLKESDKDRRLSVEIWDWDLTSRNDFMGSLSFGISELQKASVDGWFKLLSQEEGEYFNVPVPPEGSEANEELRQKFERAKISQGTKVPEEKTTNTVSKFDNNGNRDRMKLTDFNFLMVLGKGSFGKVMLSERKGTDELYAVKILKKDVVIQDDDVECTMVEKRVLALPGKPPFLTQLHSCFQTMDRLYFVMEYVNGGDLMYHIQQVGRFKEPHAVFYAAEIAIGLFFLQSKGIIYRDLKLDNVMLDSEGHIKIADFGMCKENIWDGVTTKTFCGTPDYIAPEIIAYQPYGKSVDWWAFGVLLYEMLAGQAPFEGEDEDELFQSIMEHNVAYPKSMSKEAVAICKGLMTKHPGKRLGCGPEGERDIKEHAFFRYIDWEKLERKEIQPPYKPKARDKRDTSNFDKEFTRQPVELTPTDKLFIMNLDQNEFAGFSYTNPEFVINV

| Compound | IC50 [1] [nM] | IC50 [2] [nM] | IC50 [3] [nM] | IC50 (Homo sapiens [4]; Homo sapiens) [nM] | IC50 [5] [nM] | IC50 [6] [nM] | further results |
| --- | --- | --- | --- | --- | --- | --- | --- |
| O=C(N[C@@H]1CNC[C@H]1OC(=O)c1cc(O)c(C(=O)c2c(O)cccc2C(=O)OCC2CCCCC2)c(O)c1)c1ccc(O)cc1 | 22000 | 25000 | 17000 | > 10000 | 50 | 310 |  |
| CC(C)(C)C(=O)OCOC(=O)c1cccc(O)c1C(=O)c1c(O)cc(C(=O)O[C@@H]2CNC[C@H]2NC(=O)c2ccc(O)cc2)cc1O | 20 | 34 | 160 |  | 4 | 10 | IC50 (Homo sapiens [7]): > 2800 nM |
| COC(=O)c1cccc(O)c1C(=O)c1c(O)cc(C(=O)O[C@@H]2CNC[C@H]2NC(=O)c2ccc(O)cc2)cc1O | 290 | 170 | 250 | > 50000 | 16 | 18 |  |
| CCOC(=O)c1cccc(O)c1C(=O)c1c(O)cc(C(=O)O[C@@H]2CNC[C@H]2NC(=O)c2ccc(O)cc2)cc1O | 1000 | 1300 | 2200 | > 10000 | 20 | 50 |  |
| CC(C)OC(=O)c1cccc(O)c1C(=O)c1c(O)cc(C(=O)O[C@@H]2CCC[C@H]2NC(=O)c2ccc(O)cc2)cc1O | 440 | 13000 | 4700 | > 10000 | 260 | 50 |  |
| O=C(N[C@@H]1CCC[C@H]1OC(=O)c1cc(O)c(C(=O)c2c(O)cccc2C(=O)O)c(O)c1)c1ccc(O)cc1 |  |  |  |  |  |  | IC50 (Homo sapiens [8]): > 10000 nM |
| O=C(N[C@@H]1CNC[C@H]1OC(=O)c1cc(O)c(C(=O)c2c(O)cccc2C(=O)O)c(O)c1)c1ccc(O)cc1 |  |  |  | > 50000 |  |  |  |
| CCOC(=O)c1cccc(O)c1C(=O)c1c(O)cc(C(=O)O[C@@H]2CCC[C@H]2NC(=O)c2ccc(O)cc2)cc1O | 1600 | 660 | 920 | > 2600 | 52 | 67 |  |
| CCCCOC(=O)c1cccc(O)c1C(=O)c1c(O)cc(C(=O)O[C@@H]2CNC[C@H]2NC(=O)c2ccc(O)cc2)cc1O | 2200 | 3700 | 3100 | > 10000 | 40 | 80 |  |
| CC(=O)OCOC(=O)c1cccc(O)c1C(=O)c1c(O)cc(C(=O)O[C@@H]2CNC[C@H]2NC(=O)c2ccc(O)cc2)cc1O | 20 | 130 | 130 |  | 14 | 24 | IC50 (Homo sapiens [8]): > 10000 nM |
| CC(C)(C)C(=O)OCOC(=O)c1cccc(O)c1C(=O)c1c(O)cc(C(=O)O[C@@H]2CCC[C@H]2NC(=O)c2ccc(O)cc2)cc1O |  |  |  |  |  |  | IC50 (Homo sapiens [9]): > 330 nM; IC50 [10]: Not Active; IC50 [11]: Not Active; IC50 [12]: Not Active; IC50 (Homo sapiens [13]): > 3680 nM; IC50 [14]: Not Active; IC50 [15]: Not Active |
| CC(C)COC(=O)c1cccc(O)c1C(=O)c1c(O)cc(C(=O)O[C@@H]2CNC[C@H]2NC(=O)c2ccc(O)cc2)cc1O | 20000 | 3200 | 19000 | > 10000 | 50 | 200 |  |
| COC(=O)c1cccc(O)c1C(=O)c1c(O)cc(C(=O)O[C@@H]2CCC[C@H]2NC(=O)c2ccc(O)cc2)cc1O (racemic) | 330 | 260 | 320 |  | 30 | 30 | IC50 (Homo sapiens [16]): > 1720 nM; IC50 (Homo sapiens [17]): > 800 nM |
| COC(=O)c1cccc(O)c1C(=O)c1c(O)cc(C(=O)O[C@@H]2CCC[C@H]2NC(=O)c2ccc(O)cc2)cc1O (stereo in doubt; 8 (+)) | 1800 | 20000 | 4200 |  | 400 | 250 | IC50 (Homo sapiens [4]): > 10000 nM |
| COC(=O)c1cccc(O)c1C(=O)c1c(O)cc(C(=O)O[C@@H]2CCC[C@H]2NC(=O)c2ccc(O)cc2)cc1O (stereo in doubt; 8 (-)) | 40 | 300 | 210 |  | 4 | 5 | IC50 (Homo sapiens [4]): > 1500 nM |
| O=C(N[C@@H]1CNCCC[C@H]1OC(=O)c1cc(O)c(C(=O)c2c(O)cccc2C(=O)O)c(O)c1)c1ccc(O)cc1 [BALANOL] |  |  |  | > 10000 |  |  |  |
